“And” between values parts separate entries of the source, which are not always exact repeats. Identical values can stand only once. “Also recorded” adds a separate entry of the source.
How the values were obtained:
human CYP2A6 [1] = target: T1, human CYP2A6 (Homo sapiens, UniProt P11509); test: Spectral ligand binding assay; details: for Kd: Kd 2A6, spectral titration; for Kd / Kd 2A6: ≥ = minimal Kd value; for Spectral shift type 2A6: UV/Vis difference spectra; for Kd 2A6: spectral titration
T1 sequence (P11509 with tags, fused parts or gaps limits assumed): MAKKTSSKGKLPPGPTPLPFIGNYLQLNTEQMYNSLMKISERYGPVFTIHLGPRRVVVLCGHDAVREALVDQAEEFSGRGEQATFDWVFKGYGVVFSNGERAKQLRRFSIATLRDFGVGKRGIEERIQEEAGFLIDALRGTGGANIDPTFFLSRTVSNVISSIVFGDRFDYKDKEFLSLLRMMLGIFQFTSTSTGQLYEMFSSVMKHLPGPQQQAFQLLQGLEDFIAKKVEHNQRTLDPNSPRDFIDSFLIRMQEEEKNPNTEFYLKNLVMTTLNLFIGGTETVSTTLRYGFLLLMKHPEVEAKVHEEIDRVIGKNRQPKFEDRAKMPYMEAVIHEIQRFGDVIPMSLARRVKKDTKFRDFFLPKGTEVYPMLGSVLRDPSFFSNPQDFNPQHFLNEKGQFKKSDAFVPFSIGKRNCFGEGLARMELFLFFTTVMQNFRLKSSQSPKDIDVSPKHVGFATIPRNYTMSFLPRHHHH

CYP2A6 / CYP2A13 [2] = test: Spectral ligand binding assay; design: species or system human; details: human
human CYP2A13 [3] = target: T2, human CYP2A13 (Homo sapiens, UniProt Q16696); test: Spectral ligand binding assay; details: for Kd: Kd 2A13, spectral titration, ≥ = minimal Kd value; for Spectral shift type 2A13: UV/Vis difference spectra
T2 sequence (Q16696 25-494): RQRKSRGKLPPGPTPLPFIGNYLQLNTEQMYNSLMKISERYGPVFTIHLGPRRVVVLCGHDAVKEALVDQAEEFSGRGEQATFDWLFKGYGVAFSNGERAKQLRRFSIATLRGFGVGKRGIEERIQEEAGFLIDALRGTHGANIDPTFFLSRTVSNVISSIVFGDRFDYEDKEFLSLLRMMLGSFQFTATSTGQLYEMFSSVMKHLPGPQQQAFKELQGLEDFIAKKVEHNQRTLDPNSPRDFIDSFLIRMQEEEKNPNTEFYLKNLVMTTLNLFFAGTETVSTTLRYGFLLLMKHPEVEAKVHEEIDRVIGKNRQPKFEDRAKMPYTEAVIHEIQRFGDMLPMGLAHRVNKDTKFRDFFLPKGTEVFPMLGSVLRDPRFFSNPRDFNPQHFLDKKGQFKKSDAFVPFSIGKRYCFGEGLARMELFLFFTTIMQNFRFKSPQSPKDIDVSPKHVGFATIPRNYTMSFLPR

human CYP2A6 [4] = target: T1, human CYP2A6; test: Coumarin metabolism assay; details: for Mode of inhibition 2A6 / α (mixed inhibition) 2A6: coumarin substrate; for α (mixed inhibition) 2A6: mixed model inhibition
CYP2A6 / CYP2A13 [5] = test: Coumarin metabolism assay; details: human
human CYP2A13 [6] = target: T3, human CYP2A13 (Homo sapiens, UniProt Q16696); test: Coumarin metabolism assay
T3 sequence (Q16696 with tags, fused parts or gaps limits assumed): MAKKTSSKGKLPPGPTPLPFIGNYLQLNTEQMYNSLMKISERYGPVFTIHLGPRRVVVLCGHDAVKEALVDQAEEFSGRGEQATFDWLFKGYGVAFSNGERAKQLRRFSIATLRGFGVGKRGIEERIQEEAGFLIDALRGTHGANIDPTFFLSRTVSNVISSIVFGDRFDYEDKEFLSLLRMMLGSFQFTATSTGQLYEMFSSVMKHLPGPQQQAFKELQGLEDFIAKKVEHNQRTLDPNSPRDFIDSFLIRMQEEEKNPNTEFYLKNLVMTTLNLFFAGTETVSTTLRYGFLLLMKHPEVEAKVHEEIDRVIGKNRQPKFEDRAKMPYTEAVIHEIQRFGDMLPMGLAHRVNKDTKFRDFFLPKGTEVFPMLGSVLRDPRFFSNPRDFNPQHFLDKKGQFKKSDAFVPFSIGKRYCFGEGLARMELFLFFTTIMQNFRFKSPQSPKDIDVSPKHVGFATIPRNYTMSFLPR

human CYP2A13 [7] = test: Coumarin metabolism assay; details: ratio of the CYP2A6 value to the CYP2A13 value
[8] = Selectivity Kd (2A6)/ Kd (2A13), ratio of the CYP2A6 value to the CYP2A13 value
[9] = pH 7.4, probe coumarin (7-hydroxylation), Selectivity Ki (2A6)/ Ki (2A13), ratio of the CYP2A6 value to the CYP2A13 value

Structure (SMILES) | Kd (human CYP2A6 [1]) [µM] | Spectral shift type 2A6 (human CYP2A6 [1]) | selectivity ratio (CYP2A6 / CYP2A13 [2]; [8]) | Kd (human CYP2A13 [3]) | Spectral shift type 2A13 (human CYP2A13 [3]) | Ki (human CYP2A6 [4]) [µM] | selectivity ratio at 10 min (CYP2A6 / CYP2A13 [5]; [9]) | Ki (human CYP2A13 [6]) [µM] | selectivity ratio (CYP2A6 / CYP2A13 [2]) | Mode of inhibition 2A6 (human CYP2A6 [4]) | α (mixed inhibition) 2A6 (human CYP2A6 [4]) | selectivity ratio at 10 min (CYP2A6 / CYP2A13 [5]; pH 7.4) | Mode of inhibition 2A13 (human CYP2A13 [6]; coumarin substrate) | α (mixed inhibition) 2A13 (human CYP2A13 [6]; coumarin substrate, mixed model inhibition) | Kd 2A6 (human CYP2A6 [1]) | Selectivity Ki (2A6)/ Ki (2A13) (human CYP2A13 [7])
Clc1ccc(CN2CCOCC2)cc1 [Compound 11, 4-(4-chlorobenzyl)morpholine] | ≥ 245 | I | ≥ 1.5 | 168 µM and 167 µM | I | 448 | 1 | 458 |  |  |  |  |  |  |  | 
Clc1ccsc1CN1CCOCC1 [Compound 20, 4-((3-chlorothiophen-2-yl)methyl)morpholine] | ≥ 239 | I | ≥ 22.3 | 10.7 µM | I | 433 | 7.9 | 54.7 |  |  |  |  |  |  |  | 
Clc1cccc(CN2CCOCC2)c1 [Compound 10, 4-(3-chlorobenzyl)morpholine] | ≥ 400 | I [drawing 12] II | ≥ 5.8 | 69.1 ± 30.2 µM | I | 352 | 1.4 | 260 |  |  |  |  |  |  |  | 
CCc1ccccc1CN1CCOCC1 [Compound 6, 4-(2-ethylbenzyl)morpholine] | ≥ 575 | I |  | 4.5 µM | I | 818 |  | 16.9 | ≥ 128 | mixed inhibition | 13.3 | 48.4 |  |  |  | 
Clc1ccccc1Cn1ccnc1 [Compound 16, 1-(2-chlorobenzyl)-1H-imidazole] | 0.1 |  | ≥ 1 | < 0.1 µM |  | 2.9 | 1 | 2.8 |  | purely competitive inhibitors |  |  | mixed inhibition; also recorded: mixed inhibitors | 3.9 |  | 
CN1CCN(Cc2c(Cl)cccc2Cl)CC1 [Compound 22, 1-(2,6-dichlorobenzyl)-4-methylpiperazine] |  |  |  | ≥ 362 µM | I | ≥ 1000 |  | ≥ 1000 |  |  |  |  |  |  | weak or no spectral shifts; also recorded: No Spectral Shift | 
Clc1ccc(CN2CCOCC2)c(Cl)c1 [Compound 13, 4-(2,4-dichlorobenzyl)morpholine] | ≥ 198 | I | ≥ 5.8 | 34.2 µM | I | 995 | ~9 | 113 ± 14 |  |  |  |  |  |  |  | 8.9
CN1CCN(Cc2ccccc2Cl)CC1 [Compound 21, 1-(2-chlorobenzyl)-4-methylpiperazine] |  |  |  | 306 µM | I | ≥ 1000 |  | ≥ 1000 |  |  |  |  |  |  | weak or no spectral shifts; also recorded: Weak Spectral Shift | 
c1ccc2c(CN3CCOCC3)cccc2c1 [Compound 15, 4-(naphthalen-1-ylmethyl)morpholine] |  |  |  | 41.8 µM and 121 µM | I | 500 | 2.3 | 219 ± 18.7 |  | mixed inhibition | 3.1 |  |  |  | Weak Spectral Shift | 
Clc1cccc(CN2CCOCC2)c1Cl [Compound 12, 4-(2,3-dichlorobenzyl)morpholine] | ≥ 305 | I | ≥ 9.9 | 30.8 ± 8.1 µM | I | 836 | ~9 | 88.9 |  |  |  |  |  |  |  | 9.4
CC(c1ccccc1Cl)N1CCOCC1 (stereo not drawn) [Compound 23, 4-(1-(2-chlorophenyl)ethyl)morpholine] | ≥ 538 | I | ≥ 70.8 | 7.6 ± 2.8 µM | I | 98.5 | 6.2 | 15.9 |  |  |  |  |  |  |  | 

Reference: article PMC3781598 (Pharmaceutical research, 2013)
